The record followed here is publication PMC10641818, “Development of First-in-Class Dual Sirt2/HDAC6 Inhibitors as Molecular Tools for Dual Inhibition of Tubulin Deacetylation” (Journal of Medicinal Chemistry, 2023).

For one experiment, the system named is α-tubulin acetylation. The experiment can be described thus: Immunofluorescence microscopy of α-tubulin acetylation in PC-3M-luc cells. It counts as cell-based. The following applies: 20 μM, 5 h. The protocol:
The detection of acetylation levels of α-tubulin by immunofluorescence was performed as previously described.[47] In brief, PC-3M-luc cells (25 000 cells per well) were plated in Ibidi 8-well slides (Ibidi, catalogue no. 80826) and incubated overnight at 37 °C, 5% CO2. Next, cells were treated with 20 μM of inhibitor. After 5 h, the medium was removed and the cells washed with PBS and fixed with 4% PFA for 8–10 min at ambient temperature. Cells were rinsed three times with PBS and lysed with extraction buffer (PBS, 0.1% Triton X-100) for 3–5 min at ambient temperature. After another washing step with PBS, blocking buffer (PBS, 0.1% Triton, 5% FCS) was added for at least 10 min before incubating with monoclonal acetylated α-tubulin antibody (1:500, Sigma-Aldrich, catalogue no. T6793) in blocking buffer overnight at 4 °C. […] The cells were rinsed two times with blocking buffer and once with PBS and DAPI in mounting medium ([…] HardSet Antifade Mounting Medium with DAPI, no. H-1500-10) diluted 1:50 in PBS was added and it was incubated for 10 min in the dark. Confocal microscopy was performed with a Leica SP8 confocal microscope equipped with a 40×/1.40 oil objective (Leica Microsystems) keeping the laser settings of the images constant to allow direct comparison of signal intensities between images.

Another experiment addresses T1, Sirt1 (Homo sapiens, UniProt Q96EB6).
T1 construct: the respective sirtuin (Sirt1_134–747, Sirt2_56–356, or Sirt3_118–395) was mixed with; made in house; host or cells: Escherichia coli BL21 Star (DE3)
T1 sequence (Q96EB6 134-747): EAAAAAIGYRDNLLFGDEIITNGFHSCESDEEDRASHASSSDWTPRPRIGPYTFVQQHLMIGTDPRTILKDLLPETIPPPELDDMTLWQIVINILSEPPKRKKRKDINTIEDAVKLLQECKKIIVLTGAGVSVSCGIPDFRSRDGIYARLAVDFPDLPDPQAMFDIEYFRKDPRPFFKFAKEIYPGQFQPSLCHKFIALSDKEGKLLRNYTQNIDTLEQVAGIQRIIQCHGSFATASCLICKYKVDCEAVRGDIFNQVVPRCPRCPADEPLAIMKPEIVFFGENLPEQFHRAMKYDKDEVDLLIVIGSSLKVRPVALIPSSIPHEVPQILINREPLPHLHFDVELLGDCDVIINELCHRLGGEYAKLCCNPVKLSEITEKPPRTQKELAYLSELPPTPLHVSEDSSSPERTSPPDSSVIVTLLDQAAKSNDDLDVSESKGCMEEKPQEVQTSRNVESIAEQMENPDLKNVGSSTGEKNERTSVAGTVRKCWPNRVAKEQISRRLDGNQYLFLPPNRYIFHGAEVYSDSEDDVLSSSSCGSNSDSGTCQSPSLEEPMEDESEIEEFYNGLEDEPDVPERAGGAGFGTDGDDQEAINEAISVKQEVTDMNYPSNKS
Description: Sirt1 in vitro deacetylation assay (ZMAL). It counts as biochemical.

In experiment [1] the target is T2, HDAC6 (Homo sapiens, UniProt Q9UBN7).
T2 sequence (Q9UBN7 1-1215): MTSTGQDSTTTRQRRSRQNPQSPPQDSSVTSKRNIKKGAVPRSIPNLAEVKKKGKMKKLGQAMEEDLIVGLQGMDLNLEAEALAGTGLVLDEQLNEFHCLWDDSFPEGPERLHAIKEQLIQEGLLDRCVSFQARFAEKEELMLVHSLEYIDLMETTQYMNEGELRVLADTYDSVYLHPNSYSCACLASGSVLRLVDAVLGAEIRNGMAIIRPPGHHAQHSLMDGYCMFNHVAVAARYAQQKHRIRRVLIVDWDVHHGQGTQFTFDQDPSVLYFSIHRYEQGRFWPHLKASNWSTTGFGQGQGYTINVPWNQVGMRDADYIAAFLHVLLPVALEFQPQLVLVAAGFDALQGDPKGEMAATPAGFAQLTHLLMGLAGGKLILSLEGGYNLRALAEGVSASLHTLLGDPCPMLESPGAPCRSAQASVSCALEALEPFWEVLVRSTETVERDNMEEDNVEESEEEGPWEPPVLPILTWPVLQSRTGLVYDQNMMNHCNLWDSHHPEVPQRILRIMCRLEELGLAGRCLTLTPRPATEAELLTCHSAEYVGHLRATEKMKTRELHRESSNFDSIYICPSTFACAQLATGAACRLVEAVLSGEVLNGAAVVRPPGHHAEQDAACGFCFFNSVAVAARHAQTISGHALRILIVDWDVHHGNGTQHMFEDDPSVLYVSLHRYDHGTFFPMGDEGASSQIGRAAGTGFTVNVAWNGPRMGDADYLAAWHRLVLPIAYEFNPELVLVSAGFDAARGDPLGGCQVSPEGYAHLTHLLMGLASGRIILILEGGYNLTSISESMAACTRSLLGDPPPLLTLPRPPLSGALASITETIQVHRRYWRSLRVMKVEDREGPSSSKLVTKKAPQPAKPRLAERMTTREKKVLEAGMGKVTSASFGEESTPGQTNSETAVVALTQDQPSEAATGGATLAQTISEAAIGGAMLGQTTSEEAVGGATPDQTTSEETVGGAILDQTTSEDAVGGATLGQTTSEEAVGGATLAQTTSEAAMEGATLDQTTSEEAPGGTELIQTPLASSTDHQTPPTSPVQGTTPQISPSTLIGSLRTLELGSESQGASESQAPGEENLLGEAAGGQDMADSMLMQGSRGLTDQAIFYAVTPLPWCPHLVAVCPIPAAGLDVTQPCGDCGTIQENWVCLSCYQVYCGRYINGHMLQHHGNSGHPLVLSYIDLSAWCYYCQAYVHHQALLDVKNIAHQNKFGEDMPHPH
The experiment can be described thus: HDAC6 in vitro deacetylation assay (ZMAL). It counts as biochemical. Details: purchased BPS Bioscience 50006.

The target in the next experiment is T3, HDAC3/NcoR2 (Homo sapiens, UniProt O15379).
T3 construct: purchased BPS Bioscience 50003
T3 sequence (O15379 whole entry): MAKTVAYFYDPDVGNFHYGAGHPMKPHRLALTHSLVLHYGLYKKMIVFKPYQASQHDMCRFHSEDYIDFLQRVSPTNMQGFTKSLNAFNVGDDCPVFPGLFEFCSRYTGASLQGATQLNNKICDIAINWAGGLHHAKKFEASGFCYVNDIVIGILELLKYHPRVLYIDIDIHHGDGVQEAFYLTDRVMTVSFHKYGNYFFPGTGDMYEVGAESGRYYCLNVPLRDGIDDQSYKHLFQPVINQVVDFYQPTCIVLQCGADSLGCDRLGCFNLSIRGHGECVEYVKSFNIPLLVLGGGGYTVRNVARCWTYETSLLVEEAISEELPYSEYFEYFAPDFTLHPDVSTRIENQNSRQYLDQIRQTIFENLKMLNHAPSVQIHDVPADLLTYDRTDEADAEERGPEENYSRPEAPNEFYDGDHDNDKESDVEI
T3 sequence (Q9Y618 395-489 partner limits assumed): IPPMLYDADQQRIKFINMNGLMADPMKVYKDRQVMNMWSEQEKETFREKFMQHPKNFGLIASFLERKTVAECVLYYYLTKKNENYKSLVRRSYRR
The experiment can be described thus: HDAC3 in vitro deacetylation assay (ZMAL). It counts as biochemical. The following applies: mean ± SD.

Experiment [2] has as its target T2, HDAC6. Description: HDAC6 degradation rescue experiment with PROTAC B4 (62) in MCF-7 cells (western blot). It counts as cell-based. Also on record: endogenous in cells; host or cells: MCF-7. The following applies: 20 μM pretreatment 30 min, then 62 (1 or 10 μM) 6 h. Background: A western blot detects proteins with antibodies after separation by electrophoresis.
The target of another experiment is T4, HDAC2 (Homo sapiens, UniProt Q92769).
T4 construct: purchased BPS Bioscience 50052
T4 sequence (Q92769 whole entry): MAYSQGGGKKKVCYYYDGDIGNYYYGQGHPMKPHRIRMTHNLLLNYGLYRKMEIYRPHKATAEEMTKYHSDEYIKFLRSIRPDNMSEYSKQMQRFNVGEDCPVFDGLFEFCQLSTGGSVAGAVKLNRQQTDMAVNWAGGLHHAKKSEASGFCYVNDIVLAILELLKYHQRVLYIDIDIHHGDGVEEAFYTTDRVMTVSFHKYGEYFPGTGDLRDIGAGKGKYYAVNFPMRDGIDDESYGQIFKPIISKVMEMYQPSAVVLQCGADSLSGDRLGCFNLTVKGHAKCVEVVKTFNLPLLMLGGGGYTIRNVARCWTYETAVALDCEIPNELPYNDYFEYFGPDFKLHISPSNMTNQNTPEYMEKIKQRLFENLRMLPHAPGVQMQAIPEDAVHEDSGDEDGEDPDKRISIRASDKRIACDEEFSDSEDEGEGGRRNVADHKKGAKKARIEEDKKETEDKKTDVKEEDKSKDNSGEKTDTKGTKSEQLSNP
The experiment can be described thus: HDAC2 in vitro deacetylation assay (ZMAL). The following applies: mean ± SD. It is filed as biochemical.

A further experiment concerns the target HDAC4 (Homo sapiens, UniProt P56524). The experiment can be described thus: HDAC4 continuous fluorescence deacylation assay. It is filed as biochemical.

HDAC4, sequence (P56524 whole entry, species assumed): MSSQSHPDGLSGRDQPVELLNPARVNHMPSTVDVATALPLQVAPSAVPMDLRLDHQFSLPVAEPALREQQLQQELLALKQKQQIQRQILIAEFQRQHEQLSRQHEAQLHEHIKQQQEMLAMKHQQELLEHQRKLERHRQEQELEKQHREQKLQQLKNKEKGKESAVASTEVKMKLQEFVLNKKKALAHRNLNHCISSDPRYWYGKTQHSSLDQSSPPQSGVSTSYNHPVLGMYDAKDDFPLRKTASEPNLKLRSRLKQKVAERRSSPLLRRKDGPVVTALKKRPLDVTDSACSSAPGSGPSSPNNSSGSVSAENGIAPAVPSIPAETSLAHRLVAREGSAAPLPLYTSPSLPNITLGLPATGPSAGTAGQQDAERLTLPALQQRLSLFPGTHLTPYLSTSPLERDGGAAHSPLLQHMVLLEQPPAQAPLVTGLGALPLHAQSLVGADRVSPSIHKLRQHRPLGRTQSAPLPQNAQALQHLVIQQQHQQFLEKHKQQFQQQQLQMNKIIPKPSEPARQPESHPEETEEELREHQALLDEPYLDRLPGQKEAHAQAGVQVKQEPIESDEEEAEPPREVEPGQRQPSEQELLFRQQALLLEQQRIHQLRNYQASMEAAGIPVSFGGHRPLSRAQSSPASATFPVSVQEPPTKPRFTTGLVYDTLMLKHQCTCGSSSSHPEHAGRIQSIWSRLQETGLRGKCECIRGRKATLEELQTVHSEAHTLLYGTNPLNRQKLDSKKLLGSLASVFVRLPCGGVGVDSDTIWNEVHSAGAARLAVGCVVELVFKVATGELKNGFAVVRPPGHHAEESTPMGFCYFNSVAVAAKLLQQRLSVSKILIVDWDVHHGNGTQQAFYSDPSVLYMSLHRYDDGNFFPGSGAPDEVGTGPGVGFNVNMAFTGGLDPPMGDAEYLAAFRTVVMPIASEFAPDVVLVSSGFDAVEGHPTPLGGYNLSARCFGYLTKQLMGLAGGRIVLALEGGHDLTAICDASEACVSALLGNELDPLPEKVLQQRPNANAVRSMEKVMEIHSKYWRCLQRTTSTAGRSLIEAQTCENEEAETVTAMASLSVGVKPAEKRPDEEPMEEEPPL

Regarding `Cc1cc(C)nc(SCC(=O)Nc2ncc(Cc3cccc(OCc4cn(Cc5ccccc5)nn4)c3)s2)n1` [Compound 4, SirReal1.1, reference compound], the “α-tubulin acetylation (immunofluorescence)” value in the experiment with α-tubulin acetylation is recorded as “very minor”. Besides, the inhibition at 20 µM against Sirt1 is < 15%. The inhibition at 10 µM at HDAC6 [1] (@ 10 μM, read-out: HDAC6 percentual inhibition) came to 18%.
Consider `CCCCN(Cc1ccc(C(=O)NO)cc1)C(=O)CCCCn1cc(COc2cccc(Cc3cnc(NC(=O)CSc4nc(C)cc(C)n4)s3)c2)nn1` [Compound 33, 4-((N-Butyl-5-(4-((3-((2-(2-((4,6-dimethylpyrimidin-2-yl)thio)acetamido)thiazol-5-yl)methyl)phenoxy)methyl)-1H-1,2,3-triazol-1-yl)pentanamido)methyl)-N-hydroxybenzamide], for which the IC50 was 2500 ± 200 nM against HDAC3/NcoR2; 6 ± 0.2 µM against HDAC2; > 20 µM on HDAC4; 43 ± 3 nM at HDAC6 [1] (deacetylation, mean ± SD). Further, the “α-tubulin acetylation (immunofluorescence)” value in the experiment on α-tubulin acetylation is given as “the increase in tubulin hyperacetylation was especially pronounced”. Also, on HDAC6 [2], the “Rescue of HDAC6 from degradation induced by PROTAC 62” value is on record as “able to rescue HDAC6 from proteasomal degradation induced by 62”. For the same molecule, on HDAC4 (@ 6 µM, read-out: HDAC4 percentual inhibition), the inhibition at 6 µM is 4%. In addition, the inhibition at 20 µM on HDAC4 (@ 20 μM, read-out: HDAC4 percentual inhibition) is 7%; at Sirt1, < 15%.

What is called inhibition is the share of the control response that was lost under treatment. As a reminder, the IC50 is the concentration that gives 50% inhibition. Low values mean greater potency, high ones weaker potency.
